# Laboratory results taken from patent US20240166596A1, “SULFAMOYL BENZENE DERIVATIVES AND USES THEREOF” (AphioTx Inc., priority 2021, published 2024).
# Entries after “also recorded” stand apart in the source; their conditions may differ.
# Test system: Long Evans rats
# Assay: Morphine self-administration, extinction and cue-induced reinstatement (opioid seeking)
# Type: in vivo
# Method: Adult (8 to 10 weeks old at the beginning of the experiments) wild-type male and female Long Evans rats (250-350g) were used. Animals were group housed prior to jugular vein catheter implant surgery with two to three animals per cage on a 12/12 hours dark/light cycle (lights on at 7:00 AM). Rats were acclimated to the animal facility holding rooms for at least 7 days before any manipulation. After catheter implantation, animals were single housed to prevent damage to the harnesses. All experiments were performed during the light cycle. Rats received food and water ad libitum until 2 days prior to starting the behavioral studies, when food restriction (16 g of rat chow per day) started and continued until the end of the experiments.
# All surgeries were performed under isoflurane (2.5/3 MAC) anesthesia using sterile aseptic techniques. For intravenous (IV) self-administration (SA), animals were implanted with sterile catheters in the right jugular vein and connected to a harness placed over the torso. The harness allowed for minimal stress while connecting and disconnecting the animal from infusion lines. The catheter was kept patent by daily infusions of gentamicin mixture (1.33 mg/ml).
# Equipment: Rat self-administration was conducted using operant-conditioning chambers (Med Associates) equipped with two retractable levers with a food magazine connected to a food pellet dispenser between them. Two cue lights were positioned above the levers, and one house light was positioned on the top left-hand wall. During self-administration sessions both levers (correct and incorrect lever) were extended out with white cue light turned on only above the correct lever. […]
# All experiments were performed at least twice, including each treatment condition to prevent an unspecific day/condition effect. […] All data are expressed as mean±SEM. […] After assessing the normality of sample data using Shapiro-Wilk test, statistical significance was determined by two-way repeated-measures ANOVA followed by two-tailed Sidak post hoc test. Data was analyzed using GraphPad Prism 8.1.0.
structure (smiles),measurement,setting,value
"CCCN(CCC)S(=O)(=O)c1ccc(C(O)(C(F)(F)F)C(F)(F)F)cc1 [Compound 1, 4-(1,1,1,3,3,3-hexafluoro-2-hydroxypropan-2-yl)-N,N-dipropylbenzenesulfonamide]",Extinction of morphine seeking behaviour (lever pressing),"0.5 mg/kg i.p. 1 hour prior to each extinction session, vs saline",did not show a reduction in time required for extinction; also recorded: no difference was observed
same,"Lever presses (morphine seeking) during reinstatement, all animals","0.5 mg/kg i.p. during extinction, before reinstatement, or both, vs saline",significant reduction in the number of lever presses; also recorded: rescued
same,"Lever presses (morphine seeking) during reinstatement, female rats","0.5 mg/kg i.p. during extinction, first day of reinstatement, or both, females",decreased the number of lever presses; also recorded: reversed
